Measurements from patent publication US7279161B2, “Factor IX/factor IXa activating antibodies and antibody derivatives” (Baxter Aktiengesellschaft, priority 1999, dated 2007).

System: FVIII deficient plasma
Assay: aPTT based one stage clotting assay in FVIII deficient plasma
Assay type: biochemical, human
Summary of the method: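 Test samples preincubated 4 min with FVIII-deficient plasma and aPTT reagent (DAPTTIN or Pathromtin SL), optionally with 50 ng activated FIX; clotting started with 25 mM CaCl2. Read-out is clotting time from start to clot formation, set against FVIII, buffer or scrambled-peptide controls.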

With RRREGGGYYVNWYFDRRR [A1/3] the “reduction in the clotting time” value (Pathromtin SL, in the absence of FIXa) was “no reduction of the clotting time was detectable”, the “reduction in the clotting time” value (Pathromtin SL, in the presence of FIXa) was “dose dependent reduction in the clotting time” and the average clotting time (Table 3A Exp. 1, DAPTTIN, 2.5 μM, 2.2 nM FIXa) was 91 s. For the same sequence, the clotting time (Table 3A Exp. 1, DAPTTIN, 2.5 μM, 2.2 nM FIXa, duplicate 1) was 91.1 s, the clotting time (Table 3A Exp. 1, DAPTTIN, 2.5 μM, 2.2 nM FIXa, duplicate 2) was 91 s and the average clotting time (Table 3A Exp. 1, DAPTTIN, 2.5 μM, w/o FIXa) was 105 s. The clotting time (Table 3A Exp. 1, DAPTTIN, 2.5 μM, w/o FIXa, duplicate 1) was 105.2 s, the clotting time (Table 3A Exp. 1, DAPTTIN, 2.5 μM, w/o FIXa, duplicate 2) was 104.8 s and the average clotting time (Table 3A Exp. 1, DAPTTIN, 7.5 μM, 2.2 nM FIXa) was 73 s. The clotting time (Table 3A Exp. 1, DAPTTIN, 7.5 μM, 2.2 nM FIXa, duplicate 1) was 73.1 s, the clotting time (Table 3A Exp. 1, DAPTTIN, 7.5 μM, 2.2 nM FIXa, duplicate 2) was 72.7 s and the average clotting time (Table 3A Exp. 1, DAPTTIN, 7.5 μM, w/o FIXa) was 98 s. The clotting time (Table 3A Exp. 1, DAPTTIN, 7.5 μM, w/o FIXa, duplicate 1) was 97.8 s, the clotting time (Table 3A Exp. 1, DAPTTIN, 7.5 μM, w/o FIXa, duplicate 2) was 97.9 s and the average clotting time (Table 3A Exp. 1, DAPTTIN, 12.5 μM, 2.2 nM FIXa) was 60 s. For the same sequence, the clotting time (Table 3A Exp. 1, DAPTTIN, 12.5 μM, 2.2 nM FIXa, duplicate 1) was 60.2 s, the clotting time (Table 3A Exp. 1, DAPTTIN, 12.5 μM, 2.2 nM FIXa, duplicate 2) was 58.9 s and the average clotting time (Table 3A Exp. 1, DAPTTIN, 12.5 μM, w/o FIXa) was 80 s. For the same sequence, the clotting time (Table 3A Exp. 1, DAPTTIN, 12.5 μM, w/o FIXa, duplicate 1) was 80.2 s, the clotting time (Table 3A Exp. 1, DAPTTIN, 12.5 μM, w/o FIXa, duplicate 2) was 80.6 s and the average clotting time (Table 3A Exp. 1, DAPTTIN, 15 μM, 2.2 nM FIXa) was 60 s. The clotting time (Table 3A Exp. 1, DAPTTIN, 15 μM, 2.2 nM FIXa, duplicate 1) was 59.3 s, the clotting time (Table 3A Exp. 1, DAPTTIN, 15 μM, 2.2 nM FIXa, duplicate 2) was 59.9 s and the average clotting time (Table 3A Exp. 1, DAPTTIN, 15 μM, w/o FIXa) was 78 s. The clotting time (Table 3A Exp. 1, DAPTTIN, 15 μM, w/o FIXa, duplicate 1) was 78.2 s, the clotting time (Table 3A Exp. 1, DAPTTIN, 15 μM, w/o FIXa, duplicate 2) was 77.1 s and the average clotting time (Table 3A Exp. 2, DAPTTIN, 1.25 μM, 2.2 nM FIXa) was 91 s. It also gave a clotting time (Table 3A Exp. 2, DAPTTIN, 1.25 μM, 2.2 nM FIXa, duplicate 1) of 90.7 s, a clotting time (Table 3A Exp. 2, DAPTTIN, 1.25 μM, 2.2 nM FIXa, duplicate 2) of 90.8 s and an average clotting time (Table 3A Exp. 2, DAPTTIN, 1.25 μM, w/o FIXa) of 109 s. It also gave a clotting time (Table 3A Exp. 2, DAPTTIN, 1.25 μM, w/o FIXa, duplicate 1) of 108.7 s, a clotting time (Table 3A Exp. 2, DAPTTIN, 1.25 μM, w/o FIXa, duplicate 2) of 109.3 s and an average clotting time (Table 3A Exp. 2, DAPTTIN, 2.5 μM, 2.2 nM FIXa) of 88 s. For the same sequence, the clotting time (Table 3A Exp. 2, DAPTTIN, 2.5 μM, 2.2 nM FIXa, duplicate 1) was 88 s, the clotting time (Table 3A Exp. 2, DAPTTIN, 2.5 μM, 2.2 nM FIXa, duplicate 2) was 88.8 s and the average clotting time (Table 3A Exp. 2, DAPTTIN, 2.5 μM, w/o FIXa) was 110 s. The clotting time (Table 3A Exp. 2, DAPTTIN, 2.5 μM, w/o FIXa, duplicate 1) was 110.1 s, the clotting time (Table 3A Exp. 2, DAPTTIN, 2.5 μM, w/o FIXa, duplicate 2) was 108.9 s and the average clotting time (Table 3A Exp. 2, DAPTTIN, 5 μM, 2.2 nM FIXa) was 77 s. It also gave a clotting time (Table 3A Exp. 2, DAPTTIN, 5 μM, 2.2 nM FIXa, duplicate 1) of 77 s, a clotting time (Table 3A Exp. 2, DAPTTIN, 5 μM, 2.2 nM FIXa, duplicate 2) of 76 s and an average clotting time (Table 3A Exp. 2, DAPTTIN, 5 μM, w/o FIXa) of 104 s. It also gave a clotting time (Table 3A Exp. 2, DAPTTIN, 5 μM, w/o FIXa, duplicate 1) of 103.4 s, a clotting time (Table 3A Exp. 2, DAPTTIN, 5 μM, w/o FIXa, duplicate 2) of 104.8 s and an average clotting time (Table 3A Exp. 2, DAPTTIN, 7.5 μM, 2.2 nM FIXa) of 73 s. For the same sequence, the clotting time (Table 3A Exp. 2, DAPTTIN, 7.5 μM, 2.2 nM FIXa, duplicate 1) was 71.6 s, the clotting time (Table 3A Exp. 2, DAPTTIN, 7.5 μM, 2.2 nM FIXa, duplicate 2) was 73.9 s and the average clotting time (Table 3A Exp. 2, DAPTTIN, 7.5 μM, w/o FIXa) was 100 s. The clotting time (Table 3A Exp. 2, DAPTTIN, 7.5 μM, w/o FIXa, duplicate 1) was 100.1 s, the clotting time (Table 3A Exp. 2, DAPTTIN, 7.5 μM, w/o FIXa, duplicate 2) was 100.5 s and the average clotting time (Table 3A Exp. 2, DAPTTIN, 10 μM, 2.2 nM FIXa) was 63 s. It also gave a clotting time (Table 3A Exp. 2, DAPTTIN, 10 μM, 2.2 nM FIXa, duplicate 1) of 63.1 s, a clotting time (Table 3A Exp. 2, DAPTTIN, 10 μM, 2.2 nM FIXa, duplicate 2) of 62.5 s and an average clotting time (Table 3A Exp. 2, DAPTTIN, 10 μM, w/o FIXa) of 79 s. It also gave a clotting time (Table 3A Exp. 2, DAPTTIN, 10 μM, w/o FIXa, duplicate 1) of 79.1 s, a clotting time (Table 3A Exp. 2, DAPTTIN, 10 μM, w/o FIXa, duplicate 2) of 78.5 s and an average clotting time (Table 3A Exp. 2, DAPTTIN, 12.5 μM, 2.2 nM FIXa) of 57 s. For the same sequence, the clotting time (Table 3A Exp. 2, DAPTTIN, 12.5 μM, 2.2 nM FIXa, duplicate 1) was 56.7 s, the clotting time (Table 3A Exp. 2, DAPTTIN, 12.5 μM, 2.2 nM FIXa, duplicate 2) was 56.7 s and the average clotting time (Table 3A Exp. 2, DAPTTIN, 12.5 μM, w/o FIXa) was 85 s. For the same sequence, the clotting time (Table 3A Exp. 2, DAPTTIN, 12.5 μM, w/o FIXa, duplicate 1) was 83.6 s, the clotting time (Table 3A Exp. 2, DAPTTIN, 12.5 μM, w/o FIXa, duplicate 2) was 85.5 s and the average clotting time (Table 3B, Pathromtin SL, 1 μM, 2.2 nM FIXa) was 105 s. It also gave a clotting time (Table 3B, Pathromtin SL, 1 μM, 2.2 nM FIXa, duplicate 1) of 103.7 s, a clotting time (Table 3B, Pathromtin SL, 1 μM, 2.2 nM FIXa, duplicate 2) of 105.9 s and an average clotting time (Table 3B, Pathromtin SL, 1 μM, w/o FIXa) of 139 s. For the same sequence, the clotting time (Table 3B, Pathromtin SL, 1 μM, w/o FIXa, duplicate 1) was 138.3 s, the clotting time (Table 3B, Pathromtin SL, 1 μM, w/o FIXa, duplicate 2) was 138.8 s and the average clotting time (Table 3B, Pathromtin SL, 5 μM, 2.2 nM FIXa) was 88 s. It also gave a clotting time (Table 3B, Pathromtin SL, 5 μM, 2.2 nM FIXa, duplicate 1) of 86.6 s, a clotting time (Table 3B, Pathromtin SL, 5 μM, 2.2 nM FIXa, duplicate 2) of 90.2 s and an average clotting time (Table 3B, Pathromtin SL, 5 μM, w/o FIXa) of 154 s. For the same sequence, the clotting time (Table 3B, Pathromtin SL, 5 μM, w/o FIXa, duplicate 1) was 152.6 s, the clotting time (Table 3B, Pathromtin SL, 5 μM, w/o FIXa, duplicate 2) was 155.6 s and the average clotting time (Table 3B, Pathromtin SL, 10 μM, 2.2 nM FIXa) was 78 s. The clotting time (Table 3B, Pathromtin SL, 10 μM, 2.2 nM FIXa, duplicate 1) was 76.2 s, the clotting time (Table 3B, Pathromtin SL, 10 μM, 2.2 nM FIXa, duplicate 2) was 79.8 s and the average clotting time (Table 3B, Pathromtin SL, 10 μM, w/o FIXa) was 135 s. For the same sequence, the clotting time (Table 3B, Pathromtin SL, 10 μM, w/o FIXa, duplicate 1) was 135.7 s, the clotting time (Table 3B, Pathromtin SL, 10 μM, w/o FIXa, duplicate 2) was 134.6 s and the average clotting time (Table 3B, Pathromtin SL, 15 μM, 2.2 nM FIXa) was 75 s. The clotting time (Table 3B, Pathromtin SL, 15 μM, 2.2 nM FIXa, duplicate 1) was 75.4 s, the clotting time (Table 3B, Pathromtin SL, 15 μM, 2.2 nM FIXa, duplicate 2) was 75.2 s and the average clotting time (Table 3B, Pathromtin SL, 15 μM, w/o FIXa) was 151 s. The clotting time (Table 3B, Pathromtin SL, 15 μM, w/o FIXa, duplicate 1) was 152.8 s, the clotting time (Table 3B, Pathromtin SL, 15 μM, w/o FIXa, duplicate 2) was 149.3 s and the average clotting time (Table 4, 1.25 μM, 2.2 nM FIXa) was 95 s. It also gave a clotting time (Table 4, 1.25 μM, 2.2 nM FIXa, duplicate 1) of 94.4 s, a clotting time (Table 4, 1.25 μM, 2.2 nM FIXa, duplicate 2) of 95 s and an average clotting time (Table 4, 1.25 μM, w/o FIXa) of 107 s. For the same sequence, the clotting time (Table 4, 1.25 μM, w/o FIXa, duplicate 1) was 106.7 s, the clotting time (Table 4, 1.25 μM, w/o FIXa, duplicate 2) was 107 s and the average clotting time (Table 4, 2.5 μM, 2.2 nM FIXa) was 93 s. The clotting time (Table 4, 2.5 μM, 2.2 nM FIXa, duplicate 1) was 93.6 s, the clotting time (Table 4, 2.5 μM, 2.2 nM FIXa, duplicate 2) was 93.3 s and the average clotting time (Table 4, 2.5 μM, w/o FIXa) was 108 s. For the same sequence, the clotting time (Table 4, 2.5 μM, w/o FIXa, duplicate 1) was 107.9 s, the clotting time (Table 4, 2.5 μM, w/o FIXa, duplicate 2) was 107.6 s and the average clotting time (Table 4, 5 μM, 2.2 nM FIXa) was 89 s. For the same sequence, the clotting time (Table 4, 5 μM, 2.2 nM FIXa, duplicate 1) was 89.7 s, the clotting time (Table 4, 5 μM, 2.2 nM FIXa, duplicate 2) was 88.3 s and the average clotting time (Table 4, 5 μM, w/o FIXa) was 108 s. It also gave a clotting time (Table 4, 5 μM, w/o FIXa, duplicate 1) of 108.4 s, a clotting time (Table 4, 5 μM, w/o FIXa, duplicate 2) of 107.7 s and an average clotting time (Table 4, 7.5 μM, 2.2 nM FIXa) of 81 s. The clotting time (Table 4, 7.5 μM, 2.2 nM FIXa, duplicate 1) was 80.7 s, the clotting time (Table 4, 7.5 μM, 2.2 nM FIXa, duplicate 2) was 80.5 s and the average clotting time (Table 4, 7.5 μM, w/o FIXa) was 105 s. For the same sequence, the clotting time (Table 4, 7.5 μM, w/o FIXa, duplicate 1) was 105.2 s, the clotting time (Table 4, 7.5 μM, w/o FIXa, duplicate 2) was 105.2 s and the average clotting time (Table 4, 10 μM, 2.2 nM FIXa) was 73 s. The clotting time (Table 4, 10 μM, 2.2 nM FIXa, duplicate 1) was 72 s, the clotting time (Table 4, 10 μM, 2.2 nM FIXa, duplicate 2) was 73.2 s and the average clotting time (Table 4, 10 μM, w/o FIXa) was 104 s. It also gave a clotting time (Table 4, 10 μM, w/o FIXa, duplicate 1) of 104.4 s, a clotting time (Table 4, 10 μM, w/o FIXa, duplicate 2) of 104.5 s and an average clotting time (Table 4, 12.5 μM, 2.2 nM FIXa) of 67 s. The clotting time (Table 4, 12.5 μM, 2.2 nM FIXa, duplicate 1) was 65 s, the clotting time (Table 4, 12.5 μM, 2.2 nM FIXa, duplicate 2) was 68 s and the average clotting time (Table 4, 12.5 μM, w/o FIXa) was 100 s. It also gave a clotting time (Table 4, 12.5 μM, w/o FIXa, duplicate 1) of 99.4 s, a clotting time (Table 4, 12.5 μM, w/o FIXa, duplicate 2) of 100.5 s and an average clotting time (Table 4, 15 μM, 2.2 nM FIXa) of 56 s. The clotting time (Table 4, 15 μM, 2.2 nM FIXa, duplicate 1) was 56.1 s, the clotting time (Table 4, 15 μM, 2.2 nM FIXa, duplicate 2) was 55.5 s and the average clotting time (Table 4, 15 μM, w/o FIXa) was 78 s. The clotting time (Table 4, 15 μM, w/o FIXa, duplicate 1) was 77.8 s and the clotting time (Table 4, 15 μM, w/o FIXa, duplicate 2) was 78 s.
